According to patent US11986450B2, “Methods and compositions for treating infection and inflammation with selenocyanate” (National Jewish Health, priority 2017, dated 2024):

Experiments:
[1] = aerosolized isotonic 0.5% (w/v) solution in PBS for 30 minutes
Method: Mice (C57B6) were exposed to an aerosolized isotonic 0.5% (w/v) ^−SCN solution in PBS for 30 minutes (0 hr) and ^−SCN levels in the ELF and serum were determined by HPLC-EC at various time points.

[2] = test system: Human peripheral blood neutrophils activated with PMA; conditions: 20 ng/ml PMA, 200 μM thiocyanate
Method: Cytotoxicity was assessed by measuring lactate dehydrogenase (LDH) release.

[3] = test system: clinical isolate of M. abscessus; test: NTM killing, exposure to GOX, LPO, SeCN components; assay type: cell-based; conditions: plated on LB agar immediately after mixing
Excerpt: FIGS. 24A and 24B show —SeCN-mediated killing of NTM requires LPO, but not GOX, while LPO/—SeCn has no effect upon B. Cepacia. […] All conditions with GOX also contained dextrose, the required substrate of GOX for H2O2 production.
Susceptibility of NTM species to both HOSCN- and HOSeCN-mediated killing. […] Given the shorter amount of time necessary for —SeCN-mediated killing of NTM compared to other bacteria species (FIGS. 24A and 24B), the possibility that the mechanism responsible for —SeCN-mediated killing of NTM was unique compared to —SCN-mediated killing of NTM and —SeCN-mediated killing of other species is determined. […] Since killing required LPO, the inventors believe that endogenous H2O2 production by NTM provided the H2O2 required for the generation of HOSeCN via LPO and —SeCN.

[4] = test system: Pseudomonas aeruginosa (PA) lung infection
Method: FIGS. 8A-8C. […] Wild type (WT) and beta-subunit of the epithelial Na(+) channel (βENaC) Tg Mice were nebulized with 0.5% ^−SCN twice-daily starting 24 hrs post infection. Mice were sacrificed 72 hrs post infection and lung burden of PA was assessed (FIG. 8A), BAL neutrophil counts (FIG. 8B), and BALF KC cytokine (IL-8 analog) levels determined (FIG. 8C).
The inventors have shown critical in vivo proof of principle with inhaled ^−SCN in PA-infected mice (Chandler, J. D., et al. (2015); Chandler, J. D., et al. (2013) Nebulized thiocyanate improves lung infection outcomes in mice. Br J Pharmacol 169, 1166-1177). […] Mice that overexpress a sodium channel, βENaC, have been developed that spontaneously develop lung inflammation and mucous obstructions similar to that reported in subjects with CF (Mall, M., et al. (2004) Increased airway epithelial Na+ absorption produces cystic fibrosis-like lung disease in mice. Nat Med 10, 487-493). This model is useful to differentiate the antimicrobial effect of an agent from its potential anti-inflammatory effects.

[5] = test system: macrophage (J774A.1.) cells; conditions: 100 μM HOCl, 400 μM SCN, 15 minutes, viability after 6 hrs
Method: Cells were exposed to 100 μM HOCl and/or 400 μM ^−SCN in PBS for 15 minutes, washed and then placed in fresh media for 6 hrs before viability assessment with flow cytometry (FIG. 7A).

[6] = nebulized 0.5%, twice daily, started 1 day after infection, 72 hours

Structure (SMILES): N#CS [SCN, thiocyanate]
- ELF SCN levels [1]: high ELF ^−SCN levels
- Tolerability of inhaled SCN [1]: well tolerated
- Cytoprotection in activated neutrophils [2]: cytoprotective
- Killing of NTM with LPO, without GOX [3]: did not kill NTM
- BAL neutrophil cell counts ([4]; mouse, in vivo): decreased
- Lung CFU PA burden ([4]; mouse, in vivo): lower lung CFU PA burden
- BAL levels of KC (IL-8 analog) [4, 6]: decreased
- Body weight loss [4, 6]: less body weight loss
- Lung pyocyanin levels [4, 6]: decreased lung pyocyanin levels
- Protection from HOCl-mediated necrosis [5]: protects macrophage (J774A.1.) cells from HOCl-mediated necrosis
